This is an account of results in patent US20240217966A1, “PHARMACEUTICAL COMPOSITION CONTAINING GLP-1 RECEPTOR AGONIST HAVING FUSED RING” (Shionogi & Co., Ltd., priority 2021, published 2024).

Molecules are shown by their SMILES.

For this experiment, the target named is T1, Human GLP-1 receptor (Homo sapiens, UniProt P43220).
T1 construct: expressed in transfected cells
The experiment in a line: Measurement of GLP-1 receptor agonist activity (cAMP assay). Conditions: cAMP increase in GLP-1 R/CHO-K1 cells, 2 nM human GLP-1 (7-36) = 100%, DMSO only = 0%; for Emax: CHO-K1, maximum effect, read-out: Emax. It is filed as cell-based. The method in brief: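 hGLP-1R/CHO-K1 cells in HBSS with 0.1% BSA, 20 mM HEPES, 0.1 mM IBMX and 0.2 mM RO20-1724 exposed to compound plus forskolin (400 μM stock) for 1 h at 37 °C. Intracellular cAMP read by HTRF (cAMP-d2/anti-cAMP cryptate, 1 h at room temperature).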
On the technique in general: Cyclic AMP is a second messenger, typically raised through Gs and lowered through Gi signalling.

T1 sequence (P43220 24-463): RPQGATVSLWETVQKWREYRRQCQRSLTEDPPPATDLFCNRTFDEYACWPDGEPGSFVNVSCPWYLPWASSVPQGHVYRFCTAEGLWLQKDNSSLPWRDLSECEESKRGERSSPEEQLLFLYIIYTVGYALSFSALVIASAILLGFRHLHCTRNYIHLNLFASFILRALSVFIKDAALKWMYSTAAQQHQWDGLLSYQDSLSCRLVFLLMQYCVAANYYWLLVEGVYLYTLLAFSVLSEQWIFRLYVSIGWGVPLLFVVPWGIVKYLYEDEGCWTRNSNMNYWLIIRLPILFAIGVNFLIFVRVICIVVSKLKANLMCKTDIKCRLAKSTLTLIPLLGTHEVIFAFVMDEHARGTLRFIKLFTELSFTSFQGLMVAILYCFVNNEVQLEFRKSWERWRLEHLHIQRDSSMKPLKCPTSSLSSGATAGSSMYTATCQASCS

With `C[C@H]1c2nc(OCc3ccccc3Cl)c(C(F)(F)F)cc2CCN1Cc1nc2ccc(C(=O)O)nc2n1C[C@@H]1CCO1` [Compound I-287], the Emax (usually the greatest response seen or fitted, relative to the assay's reference) is 116% and the EC50 (commonly the concentration giving half of the maximal effect) came out at 0.103 nM.
Turning to `C[C@H]1c2nc(OCc3ccc(F)cc3F)c(C(F)(F)F)cc2CCN1Cc1nc2ccc(C(=O)O)nc2n1C[C@@H]1CCO1` [Compound I-288], the Emax was 115% and a half-maximal effect (EC50) was put at 0.171 nM.
As for `C[C@H]1c2nc(OCc3ccc(OC(F)F)cc3F)c(C(F)(F)F)cc2CCN1Cc1nc2ccc(C(=O)O)nc2n1C[C@@H]1CCO1` [Compound I-289], the Emax was determined as 117% and the EC50 stood at 0.311 nM.
On to `C[C@H]1c2nc(OCc3ccc(F)cc3)c(C(F)(F)F)cc2CCN1Cc1nc2ccc(C(=O)O)nc2n1C[C@@H]1CCO1` [Compound I-290], for which the Emax is 118% and the EC50 was 0.266 nM.
In the case of `C[C@H]1c2nc(OCc3c(F)cc(Cl)cc3F)c(C(F)(F)F)cc2CCN1Cc1nc2ccc(C(=O)O)nc2n1C[C@@H]1CCO1` [Compound I-291], the Emax is 120% and the EC50 was determined as 0.0864 nM.
Turning to `C[C@H]1c2nc(OCc3c(F)cc(F)cc3F)c(C(F)(F)F)cc2CCN1Cc1nc2ccc(C(=O)O)nc2n1C[C@@H]1CCO1` [Compound I-292], the Emax is 121% and it took 0.146 nM to reach a half-maximal effect (EC50).
On to `O=C(O)c1ccc2nc(CN3CCc4cc(C(F)(F)F)c(OCc5ccc(Cl)cc5)nc4C3)n(C[C@@H]3CCO3)c2c1F` [Compound I-294], for which the Emax amounted to 97.7%.
For the compound `Cc1ccc(COc2nc3c(cc2C(F)(F)F)CCN(Cc2nc4ccc(C(=O)O)c(F)c4n2C[C@@H]2CCO2)C3)cc1` [Compound I-295], the Emax is 108% and the EC50 was determined as 1.29 nM.
Take `COc1cc(Cl)ccc1COc1nc2c(cc1C(F)(F)F)CCN(Cc1nc3ccc(C(=O)O)c(F)c3n1C[C@@H]1CCO1)C2` [Compound I-296]: the Emax is 117%.
Regarding `O=C(O)c1ccc2nc(CN3CCc4cc(C(F)(F)F)c(OCc5ccc(F)cc5F)nc4C3)n(C[C@@H]3CCO3)c2c1F` [Compound I-297], the Emax turned out to be 102% and a half-maximal response (EC50) required 0.818 nM.
On to `O=C(O)c1ccc2nc(CN3CCc4cc(C(F)(F)F)c(OCc5ccc(Cl)cc5Cl)nc4C3)n(C[C@@H]3CCO3)c2c1F` [Compound I-298], for which the Emax amounted to 109% and the EC50 was found to be 0.317 nM.
On the same counts, the results for `O=C(O)c1ccc2nc(CN3CCc4cc(C(F)(F)F)c(OCc5cc(F)c(Cl)cc5F)nc4C3)n(C[C@@H]3CCO3)c2c1F` [Compound I-299] are 115% and 0.42 nM.
In the case of `N#Cc1ccc(COc2nc3c(cc2C(F)(F)F)CCN(Cc2nc4ccc(C(=O)O)c(F)c4n2C[C@@H]2CCO2)C3)c(F)c1` [Compound I-300], the Emax turned out to be 112%.
On the same count and under the same terms, to `O=C(O)c1ccc2nc(CN3CCc4cc(C(F)(F)F)c(OCc5c(F)cc(Cl)cc5F)nc4C3)n(C[C@@H]3CCO3)c2c1F` [Compound I-301] belongs 117%.
With `O=C(O)c1ccc2nc(CN3CCc4cc(C(F)(F)F)c(OCc5ccc(Cl)cc5)nc4C3)n(C[C@@H]3CCO3)c2n1` [Compound I-302], the Emax amounted to 110% and a half-maximal effect (EC50) was put at 1.76 nM.
As to `COc1cc(Cl)ccc1COc1nc2c(cc1C(F)(F)F)CCN(Cc1nc3ccc(C(=O)O)nc3n1C[C@@H]1CCO1)C2` [Compound I-303], the Emax is 119% and a half-maximal effect (EC50) was put at 0.681 nM.
As to `O=C(O)c1ccc2nc(CN3CCc4cc(C(F)(F)F)c(OCc5ccc(Cl)cc5Cl)nc4C3)n(C[C@@H]3CCO3)c2n1` [Compound I-304], the Emax came to 115% and the EC50 turned out to be 0.869 nM.
As to `O=C(O)c1ccc2nc(CN3CCc4cc(C(F)(F)F)c(OCc5cc(F)c(Cl)cc5F)nc4C3)n(C[C@@H]3CCO3)c2n1` [Compound I-305], the Emax was 107% and the EC50 is 0.949 nM.
On the same counts, the results for `O=C(O)c1ccc2nc(CN3CCc4cc(C(F)(F)F)c(OCc5ccc(Cl)cc5F)nc4C3)n(C[C@@H]3CCO3)c2n1` [Compound I-306] are 98.7% and 0.876 nM.
Consider `C[C@H]1c2nc(OCc3ccc(F)cc3)c(C(F)(F)F)cc2CCN1Cc1nc2c(F)cc(C(=O)O)cc2n1C[C@@H]1CCO1` [Compound I-307], for which the Emax was 115% and the EC50 was 0.0609 nM.
Turning to `C[C@H]1c2nc(OCc3ccc(F)cc3)c(C(F)(F)F)cc2CCN1Cc1nc2ccc(C(=O)O)c(F)c2n1C[C@@H]1CCO1` [Compound I-308], the Emax was 115% and the EC50 amounted to 0.0871 nM.
With `C[C@H]1c2cc(OCc3ccc(Cl)cn3)c(Cl)cc2CCN1Cc1nc2ccc(C(=O)O)cc2n1C[C@@H]1CCO1` [Compound I-309], the Emax was determined as 84.3% and the EC50 amounted to 2.28 nM.
As for `COc1cc(Cl)ccc1COc1cc2c(cc1Cl)CCN(Cc1nc3ccc(C(=O)O)cc3n1C[C@@H]1CCO1)[C@H]2C` [Compound I-310], the Emax is 91% and a half-maximal response (EC50) required 0.415 nM.
On the same counts, the results for `C[C@H]1c2cc(OCc3ccc(Cl)cc3Cl)c(Cl)cc2CCN1Cc1nc2ccc(C(=O)O)cc2n1C[C@@H]1CCO1` [Compound I-311] are 124% and 0.972 nM.
With `C[C@H]1c2cc(OCc3c(F)cc(Cl)cc3F)c(Cl)cc2CCN1Cc1nc2ccc(C(=O)O)cc2n1C[C@@H]1CCO1` [Compound I-312], the Emax amounted to 102% and the EC50 was determined as 2.03 nM.
For `Cc1ccc(COc2cc3c(cc2Cl)CCN(Cc2nc4ccc(C(=O)O)nc4n2C[C@@H]2CCO2)[C@H]3C)cc1` [Compound I-313], the Emax stood at 94% and the EC50 turned out to be 7.87 nM.
For the compound `COc1cc(Cl)ccc1COc1cc2c(cc1Cl)CCN(Cc1nc3ccc(C(=O)O)nc3n1C[C@@H]1CCO1)[C@H]2C` [Compound I-314], the Emax was determined as 98.3% and the EC50 was found to be 0.537 nM.
Regarding `C[C@H]1c2cc(OCc3ccc(Cl)cc3F)c(Cl)cc2CCN1Cc1nc2ccc(C(=O)O)nc2n1C[C@@H]1CCO1` [Compound I-315], the Emax was determined as 94.3% and the EC50 was 2.1 nM.
As to `C[C@H]1c2cc(OCc3ccc(Cl)cc3Cl)c(Cl)cc2CCN1Cc1nc2ccc(C(=O)O)nc2n1C[C@@H]1CCO1` [Compound I-316], the Emax turned out to be 117% and the response was half-maximal at 1.66 nM (EC50).
Regarding `Cc1ccc(COc2cc3c(cc2Cl)CCN(Cc2nc4ccc(C(=O)O)c(F)c4n2C[C@@H]2CCO2)[C@H]3C)cc1` [Compound I-317], the Emax was 97.7% and a half-maximal effect (EC50) was put at 2.56 nM.
As to `COc1ccc(COc2cc3c(cc2Cl)CCN(Cc2nc4ccc(C(=O)O)c(F)c4n2C[C@@H]2CCO2)[C@H]3C)cc1` [Compound I-318], the Emax was 91.3% and the midpoint of the response, the EC50, lay at 4.55 nM.
For `C[C@H]1c2cc(OCc3ccc(Cl)cc3)c(Cl)cc2CCN1Cc1nc2ccc(C(=O)O)c(F)c2n1C[C@@H]1CCO1` [Compound I-319] the same measures were 95.3% and 2.43 nM.
Regarding `C[C@H]1c2cc(OCc3ccc(Cl)cn3)c(Cl)cc2CCN1Cc1nc2ccc(C(=O)O)c(F)c2n1C[C@@H]1CCO1` [Compound I-320], the Emax worked out at 90.3% and the EC50 stood at 1.63 nM.
With `C[C@H]1c2cc(OCc3ccc(C4CC4)cc3)c(Cl)cc2CCN1Cc1nc2ccc(C(=O)O)c(F)c2n1C[C@@H]1CCO1` [Compound I-321], the Emax worked out at 84% and the EC50 was 9.85 nM.
In the case of `C[C@H]1c2cc(OCc3ccccc3Cl)c(Cl)cc2CCN1Cc1nc2ccc(C(=O)O)c(F)c2n1C[C@@H]1CCO1` [Compound I-322], the maximum response (Emax) stood at 89% and the EC50 was found to be 3.51 nM.
Turning to `C[C@H]1c2cc(OCc3ccc(F)cc3F)c(Cl)cc2CCN1Cc1nc2ccc(C(=O)O)c(F)c2n1C[C@@H]1CCO1` [Compound I-323], the Emax came to 101% and the EC50 came out at 1.7 nM.
As to `C[C@H]1c2cc(OCc3ccc(Cl)cc3F)c(Cl)cc2CCN1Cc1nc2ccc(C(=O)O)c(F)c2n1C[C@@H]1CCO1` [Compound I-324], the Emax stood at 100% and the response was half-maximal at 0.466 nM (EC50).
Consider `C[C@H]1c2cc(OCc3ccc(Cl)cc3Cl)c(Cl)cc2CCN1Cc1nc2ccc(C(=O)O)c(F)c2n1C[C@@H]1CCO1` [Compound I-325], for which the Emax was 105% and it took 0.655 nM to reach a half-maximal effect (EC50).
As to `C[C@H]1c2cc(OCc3cc(F)c(Cl)cc3F)c(Cl)cc2CCN1Cc1nc2ccc(C(=O)O)c(F)c2n1C[C@@H]1CCO1` [Compound I-326], the Emax was 109% and the EC50 came out at 1.31 nM.
As to `C[C@H]1c2cc(OCc3ccc(OC(F)F)cc3F)c(Cl)cc2CCN1Cc1nc2ccc(C(=O)O)c(F)c2n1C[C@@H]1CCO1` [Compound I-327], the Emax stood at 100% and the EC50 was 1.06 nM.
On to `C[C@H]1c2cc(OCc3c(F)cc(F)cc3F)c(Cl)cc2CCN1Cc1nc2ccc(C(=O)O)c(F)c2n1C[C@@H]1CCO1` [Compound I-328], for which the Emax came out at 87.3% and the EC50 turned out to be 1.73 nM.
For `C[C@H]1c2cc(OCc3c(F)cc(Cl)cc3F)c(Cl)cc2CCN1Cc1nc2ccc(C(=O)O)c(F)c2n1C[C@@H]1CCO1` [Compound I-329], the maximal effect (Emax) amounted to 96.7% and the EC50 worked out at 1.16 nM.
Consider `Cc1ccc(COc2cc3c(cc2Cl)CCN(Cc2nc4c(F)cc(C(=O)O)cc4n2C[C@@H]2CCO2)[C@H]3C)cc1` [Compound I-330], for which the Emax amounted to 93% and the response was half-maximal at 1.22 nM (EC50).
For `COc1ccc(COc2cc3c(cc2Cl)CCN(Cc2nc4c(F)cc(C(=O)O)cc4n2C[C@@H]2CCO2)[C@H]3C)cc1` [Compound I-331] the same measures were 102% and 2.7 nM.
Take `C[C@H]1c2cc(OCc3ccc(Cl)cc3)c(Cl)cc2CCN1Cc1nc2c(F)cc(C(=O)O)cc2n1C[C@@H]1CCO1` [Compound I-332]: the Emax amounted to 105% and the EC50 was 1.38 nM.
